Test [1] addresses melanocortin-4 receptors (Homo sapiens, UniProt P32245). Description: [125I]AGRP competition binding assay. The conditions noted are these: particularly melanocortin-4 receptors. From the text:
(§1) The first radioligand binding assay is an [^125I]AGRP competition binding assay. Compounds that attenuate binding of [^125I]AGRP or AGRP would be detected in this assay. It is noted that compounds can attenuate the binding of AGRP to melanocortin 3 and/or 4 receptors by binding to melanocortin 3 and/or 4 receptors or by binding to AGRP itself. The second radioligand binding assay is an assay using radiolabeled melanocortin ligands, for example, [^125I]norleucine D-phenylalanine melanocyte stimulating hormone ([^125I]NDP-MSH). Membranes prepared from cells expressing either melanocortin 3 or 4 receptors are used in the radioligand binding assays. The preparation and use of [^125I]AGRP and [^125I]NDP-MSH is well known in the art. See, for example, Dang et al., Molecular Endocrinology, 13, 148-155 (1999). In addition, the preparation and use of membranes from cells expressing either melanocortin 3 or 4 receptors are also well known in the art. See, Bass, et al., Molecular Pharmacology, 50, 709-715 (1996).
Specific Activity of [^125I]AGRP is 2200 Ci/mmole. The final concentration of [^125I]AGRP is 100 pM. Therefore, a 2 nM (20×) stock needs to be made in binding buffer. The concentration of [^125I]AGRP varies from 40-60 nM. [^125I]AGRP can be obtained from New England Nuclear, Boston, Mass.
(§2) The competition assay can be run using 96 well plates. […]

Test [2] concerns melanocortin receptors. Description: [125I]NDP-MSH competition binding assay.
Description: as §1
Specific Activity of [^125I]NDP-MSH is 2200 Ci/mmole. The final concentration of [^125I]NDP-MSH is 250 pM. Therefore, a 5 nM (20×) stock needs to be made in binding buffer. The concentration of [^125I]NDP-MSH varies from 40-60 nM. [^125I]NDP-MSH can be obtained from New England Nuclear, Boston, Mass.
as §2

The test system of test [3] is MDA-MB-231 cells. Briefly: Inhibition of in vitro human breast tumor cell growth, ER-negative cell line. The conditions noted are these: MDA-MB-231 (ER-negative), 6 days incubation, direct cell counts. Format: cell-based. The procedure: The in vitro antiproliferative effects of (−)-cis-6-phenyl-5-[4-(2-pyrrolidin-1-yl-ethoxy)-phenyl]-5,6,7,8-tetrahydro-naphthalene-2-ol (PPTN) were tested using two types of human breast cancer cell lines: first, MCF-7 cells, which contain ER as well as progesterone receptors (PgR), and second, MDA-MB-231 cells, which lack ER and PgR, and enable the determination of an effect that is independent of the ER mechanism. The effect of PPTN on the growth of these different cell lines was determined by incubation of the cells with various compound concentrations for 6 days.
The antiproliferative effects were then determined by direct cell counts. PPTN inhibited the growth of the ER-positive cell line MCF-7.

Molecules are shown by their SMILES.

Sequence of melanocortin-4 receptors (P32245 whole entry): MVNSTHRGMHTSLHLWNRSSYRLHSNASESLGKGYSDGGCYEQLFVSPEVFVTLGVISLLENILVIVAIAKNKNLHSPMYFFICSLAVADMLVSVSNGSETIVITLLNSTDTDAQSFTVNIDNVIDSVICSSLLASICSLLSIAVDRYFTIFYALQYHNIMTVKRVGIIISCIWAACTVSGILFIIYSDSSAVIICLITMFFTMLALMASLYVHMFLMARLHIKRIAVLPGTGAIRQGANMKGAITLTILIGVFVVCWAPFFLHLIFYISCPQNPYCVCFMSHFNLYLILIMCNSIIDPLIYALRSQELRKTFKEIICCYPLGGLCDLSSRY

`O=[N+]([O-])c1ccc(N2C3c4ccccc4CCN3N(c3ccc([N+](=O)[O-])cc3)C3c4ccccc4CCN32)cc1` (stereo not drawn) [8,16-bis-(4-nitro-phenyl)-5,6,8,8a,13,14,16,16a-octahydro-[1,2,4,5]tetrazino[6,1-a;3,4-a′]diisoquinoline]: the “binding of agouti-related protein to melanocortin receptors” value in test [1] is “attenuates”. Moreover, in test [2], the “binding of α-melanocyte stimulating hormone to melanocortin receptors” value was “does not attenuate”.

For `Oc1ccc2c(c1)CC[C@H](c1ccccc1)[C@@H]2c1ccc(OCCN2CCCC2)cc1` [PPTN, (−)-cis-6-phenyl-5-[4-(2-pyrrolidin-1-yl-ethoxy)-phenyl]-5,6,7,8-tetrahydro-naphthalene-2-ol], in test [3], the “effect on cell proliferation” value is given as “did not inhibit cell proliferation”.

The values above are taken from US20030083228A1, “Treatments for female sexual dysfunction and methods for identifying compounds useful for treating female sexual dysfunction” (priority 2001, published 2003).
